Data on 26 compounds can be found in US20250320189A1, “NEW DERIVATIVES FOR TREATING TRPM3 MEDIATED DISORDERS” (Katholieke Universiteit Leuven, priority 2022, published 2025).

T1 sequence (J9SQF3 1-1709 isoform J9SQF3-12): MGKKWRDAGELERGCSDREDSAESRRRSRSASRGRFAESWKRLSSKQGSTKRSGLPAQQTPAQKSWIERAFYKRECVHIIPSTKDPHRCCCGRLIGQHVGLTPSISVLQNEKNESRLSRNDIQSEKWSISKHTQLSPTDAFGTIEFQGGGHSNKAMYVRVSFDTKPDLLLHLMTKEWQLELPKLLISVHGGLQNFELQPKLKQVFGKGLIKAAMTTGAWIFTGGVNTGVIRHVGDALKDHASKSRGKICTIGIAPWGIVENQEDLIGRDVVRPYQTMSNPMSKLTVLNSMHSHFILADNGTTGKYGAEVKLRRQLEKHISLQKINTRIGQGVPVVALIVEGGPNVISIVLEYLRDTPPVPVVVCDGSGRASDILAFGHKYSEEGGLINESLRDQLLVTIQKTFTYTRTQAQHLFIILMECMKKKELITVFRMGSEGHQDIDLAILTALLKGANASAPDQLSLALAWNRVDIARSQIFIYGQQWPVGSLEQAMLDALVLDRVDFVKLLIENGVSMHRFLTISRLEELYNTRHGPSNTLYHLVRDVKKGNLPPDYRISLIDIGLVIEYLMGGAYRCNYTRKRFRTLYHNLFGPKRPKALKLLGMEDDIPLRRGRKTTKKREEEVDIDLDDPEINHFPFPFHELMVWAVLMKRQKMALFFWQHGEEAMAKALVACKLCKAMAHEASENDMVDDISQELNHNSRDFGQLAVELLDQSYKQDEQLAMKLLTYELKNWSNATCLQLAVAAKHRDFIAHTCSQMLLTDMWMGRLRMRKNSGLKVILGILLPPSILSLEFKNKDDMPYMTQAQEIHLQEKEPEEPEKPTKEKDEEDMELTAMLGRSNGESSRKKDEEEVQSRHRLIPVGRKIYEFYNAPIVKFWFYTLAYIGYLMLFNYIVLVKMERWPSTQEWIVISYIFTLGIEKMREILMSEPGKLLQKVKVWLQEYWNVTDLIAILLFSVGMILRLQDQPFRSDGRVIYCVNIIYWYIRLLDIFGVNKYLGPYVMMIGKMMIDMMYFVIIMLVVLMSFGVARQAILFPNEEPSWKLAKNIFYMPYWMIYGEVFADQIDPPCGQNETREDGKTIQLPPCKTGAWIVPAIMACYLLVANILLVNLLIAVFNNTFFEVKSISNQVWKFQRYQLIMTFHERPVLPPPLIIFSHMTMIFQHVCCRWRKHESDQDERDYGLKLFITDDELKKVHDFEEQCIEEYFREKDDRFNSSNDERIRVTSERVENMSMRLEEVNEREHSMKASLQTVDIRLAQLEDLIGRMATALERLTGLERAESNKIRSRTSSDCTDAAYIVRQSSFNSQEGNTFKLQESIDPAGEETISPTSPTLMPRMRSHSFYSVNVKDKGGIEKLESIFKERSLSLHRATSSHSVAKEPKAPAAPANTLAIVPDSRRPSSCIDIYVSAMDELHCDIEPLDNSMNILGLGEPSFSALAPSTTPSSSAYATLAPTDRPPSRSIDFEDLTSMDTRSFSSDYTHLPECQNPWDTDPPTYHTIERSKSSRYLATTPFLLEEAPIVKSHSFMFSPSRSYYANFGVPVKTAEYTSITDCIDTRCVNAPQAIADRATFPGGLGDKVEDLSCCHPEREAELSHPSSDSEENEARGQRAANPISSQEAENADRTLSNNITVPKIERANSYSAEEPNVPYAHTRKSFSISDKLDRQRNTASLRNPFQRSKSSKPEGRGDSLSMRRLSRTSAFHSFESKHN

The assay concerns the target T1, mouse TRPM3α2 (mTRPM3) ion channel (Mus musculus, UniProt J9SQF3).
T1 construct: expressed in transfected cells; host or cells: flip-in (Flp-In) HEK293
As to the kind of experiment: Monitoring the TRPM3 ion channel driven Ca2+ uptake (Fluo-4 AM assay). In kind it is cell-based. Conditions: mTRPM3alpha2 overexpressing flip-in HEK293 cells, stimulated with Pregnenolone sulfate (PS) 50 μM. On the procedure: In order to monitor the inhibition of the mouse TRPM3α2 (mTRPM3) ion channel by the compounds of the invention, a cellular system making use of an mTRPM3alpha2 or hTRPM3 overexpressing cell line (flip-in HEK293) was used. The TRPM3 channel was stimulated/opened with Pregnenolone sulfate (PS) (50 μM) which results in Ca^2+ influx.
For mTRPM3, the intracellular Ca^2+ was measured with a Calcium responsive dye, Fluor-4 AMV ester (Invitrogen). Cells were cultured until a confluence of 80-90%, washed with Versene (Invitrogen) and detached from the surface by a short incubation with 0.05% Trypsin (Invitrogen). The trypsination process was stopped by the addition of complete cell culture medium (DMEM, glutamax, 10% FCS, NEAA,Pen-Strep). Cells were collected and resuspended in Krebs buffer without Calcium at RT.
Prior the cell seeding (±2000 cells/well into a black, 384 well plate (Greiner)) the diluted compound was added in the assay plate, together with the PS dissolved in Krebs buffer containing Calcium. […] Directly after cell addition the plates were read on an Envision fluorescence reader (PerkinElmer) by an Excitation of 485 nm and emission at 535 nm.
Channel inhibition was calculated compared to a non-PS stimulated control versus a condition stimulated with PS (50 μM) with vehicle. The ability of the compounds of the invention to inhibit this activity was determined as: Percentage inhibition=[1−((RFU determined for sample with test compound present−RFU determined for sample with positive control inhibitor) divided by (RFU determined in the presence of vehicle−RFU determined for sample with positive control inhibitor))]*100.
The activities of the Example compounds tested are depicted in the table below. The activity ranges A, B and C refer to IC50 values in the Fluo-4 AM assay as follows: “A”: IC50<1 μM; “B”: 1 μM≤IC50≤20 μM and “C”: IC50>20 μM
As for `Cc1oc2ccc(OCC3CCC3)cc2c1C(=O)NC(C)(CO)C(N)=O` (single isomer, unassigned) [Cpd 053 - En1, 2-{[5-(cyclobutylmethoxy)-2-methyl-1-benzofuran-3-yl]formamido}-3-hydroxy-2-methylpropanamide], the concentration for half-maximal inhibition (IC50) is less than 1000 nM. With `Cc1oc2ccc(OCC3CCC3)cc2c1C(=O)NC(C)(CO)C(N)=O` (single isomer, unassigned) [Cpd 053 - En2, 2-{[5-(cyclobutylmethoxy)-2-methyl-1-benzofuran-3-yl]formamido}-3-hydroxy-2-methylpropanamide], the IC50 is less than 1000 nM. Compound `Cc1oc2ccc(OCC3CC(F)(F)C3)cc2c1C(=O)NC(C)(CO)C(N)=O` (single isomer, unassigned) [Cpd 054 - En1, 2-({5-[(3,3-difluorocyclobutyl)methoxy]-2-methyl-1-benzofuran-3-yl}formamido)-3-hydroxy-2-methylpropanamide] had an IC50 of 1000 to 20000 nM. With `Cc1oc2ccc(OCC3CC(F)(F)C3)cc2c1C(=O)NC(C)(CO)C(N)=O` (single isomer, unassigned) [Cpd 054 - En2, 2-({5-[(3,3-difluorocyclobutyl)methoxy]-2-methyl-1-benzofuran-3-yl}formamido)-3-hydroxy-2-methylpropanamide], the IC50 was less than 1000 nM. With `Cc1oc2ccc(OCC3CC3)cc2c1C(=O)NC1CCCNC1=O` (single isomer, unassigned) [Cpd 055 - En1, 5-(cyclopropylmethoxy)-2-methyl-N-(2-oxopiperidin-3-yl)-1-benzofuran-3-carboxamide], the 50% inhibitory concentration (IC50) is less than 1000 nM. For `Cc1oc2ccc(OCC3CC3)cc2c1C(=O)NC1CCCNC1=O` (single isomer, unassigned) [Cpd 055 - En2, 5-(cyclopropylmethoxy)-2-methyl-N-(2-oxopiperidin-3-yl)-1-benzofuran-3-carboxamide] the value was 1000 to 20000 nM; for `Cc1oc2ccc(OCC3CC3)cc2c1C(=O)NC(CO)C(N)C(F)(F)F` (single isomer, unassigned) [Cpd 056 - En1, N-[(2)-3-amino-4,4,4-trifluoro-1-hydroxybutan-2-yl]-5-(cyclopropylmethoxy)-2-methyl-1-benzofuran-3-carboxamide], 1000 to 20000 nM; for `Cc1oc2ccc(OCC3CC3)cc2c1C(=O)NC(CO)C(N)C(F)(F)F` (single isomer, unassigned) [Cpd 056 - En2, N-[(2)-3-amino-4,4,4-trifluoro-1-hydroxybutan-2-yl]-5-(cyclopropylmethoxy)-2-methyl-1-benzofuran-3-carboxamide], less than 1000 nM. For the compound `Cc1oc2ccc(OCC3CC3)cc2c1C(=O)NC(CO)C(N)C(F)(F)F` (single isomer, unassigned) [Cpd 056 - En3, N-[(2)-3-amino-4,4,4-trifluoro-1-hydroxybutan-2-yl]-5-(cyclopropylmethoxy)-2-methyl-1-benzofuran-3-carboxamide], the IC50 is less than 1000 nM.

In turn, `Cc1oc2ccc(OCC3CC3)cc2c1C(=O)NC(CO)C(N)C(F)(F)F` (single isomer, unassigned) [Cpd 056 - En4, N-[(2)-3-amino-4,4,4-trifluoro-1-hydroxybutan-2-yl]-5-(cyclopropylmethoxy)-2-methyl-1-benzofuran-3-carboxamide] registered an IC50 of 1000 to 20000 nM. In the case of `Cc1oc2ccc(OCC3CC3(F)F)cc2c1C(=O)NC(CO)CC(F)(F)F` (single isomer, unassigned) [Cpd 057 - En1, 5-[(2,2-difluorocyclopropyl)methoxy]-2-methyl-N-(4,4,4-trifluoro-1-hydroxybutan-2-yl)-1-benzofuran-3-carboxamide], the half-inhibitory concentration (IC50) was less than 1000 nM.

For `Cc1oc2ccc(OCC3CC3(F)F)cc2c1C(=O)NC(CO)CC(F)(F)F` (single isomer, unassigned) [Cpd 057 - En2, 5-[(2,2-difluorocyclopropyl)methoxy]-2-methyl-N-(4,4,4-trifluoro-1-hydroxybutan-2-yl)-1-benzofuran-3-carboxamide], the IC50 is less than 1000 nM. Consider `Cc1oc2ccc(OCC3CC3(F)F)cc2c1C(=O)NC(CO)CC(F)(F)F` (single isomer, unassigned) [Cpd 057 - En3, 5-[(2,2-difluorocyclopropyl)methoxy]-2-methyl-N-(4,4,4-trifluoro-1-hydroxybutan-2-yl)-1-benzofuran-3-carboxamide], for which the IC50 lay in the range of 1000 to 20000 nM. With `Cc1oc2ccc(OCC3CC3(F)F)cc2c1C(=O)NC(CO)CC(F)(F)F` (single isomer, unassigned) [Cpd 057 - En4, 5-[(2,2-difluorocyclopropyl)methoxy]-2-methyl-N-(4,4,4-trifluoro-1-hydroxybutan-2-yl)-1-benzofuran-3-carboxamide], the IC50 lay within 1000 to 20000 nM.

`Cc1oc2ccc(OC[C@H]3C[C@@H](C)C3)cc2c1C(=O)NC(C)(CO)C(N)=O` (single isomer, unassigned) [Cpd 058 - En1, Cis-3-hydroxy-2-methyl-2-({2-methyl-5-[(3-methylcyclobutyl)methoxy]-1-benzofuran-3-yl}formamido)propenamide] returned an IC50 of less than 1000 nM. For the compound `Cc1oc2ccc(OC[C@H]3C[C@@H](C)C3)cc2c1C(=O)NC(C)(CO)C(N)=O` (single isomer, unassigned) [Cpd 058 - En2, Cis-3-hydroxy-2-methyl-2-({2-methyl-5-[(3-methylcyclobutyl)methoxy]-1-benzofuran-3-yl}formamido)propenamide], the IC50 lay in the range of 1000 to 20000 nM.

`Cc1oc2ccc(OC[C@H]3C[C@H](C)C3)cc2c1C(=O)NC(C)(CO)C(N)=O` (single isomer, unassigned) [Cpd 059 - En1, Trans-3-hydroxy-2-methyl-2-({2-methyl-5-[(3-methylcyclobutyl)methoxy]-1-benzofuran-3-yl}formamido)propenamide] showed a half-inhibitory concentration (IC50) of less than 1000 nM. For `Cc1oc2ccc(OC[C@H]3C[C@H](C)C3)cc2c1C(=O)NC(C)(CO)C(N)=O` (single isomer, unassigned) [Cpd 059 - En2, Trans-3-hydroxy-2-methyl-2-({2-methyl-5-[(3-methylcyclobutyl)methoxy]-1-benzofuran-3-yl}formamido)propenamide] the value was 1000 to 20000 nM; for `COCC(C)(CO)NC(=O)c1c(C)oc2ccc(OCC3(C(F)(F)F)CC3)cc12` (single isomer, unassigned) [Cpd 060 - En1, N-(1-hydroxy-3-methoxy-2-methylpropan-2-yl)-2-methyl-5-{[1-(trifluoromethyl)cyclopropyl]methoxy}-1-benzofuran-3-carboxamide], 1000 to 20000 nM; for `COCC(C)(CO)NC(=O)c1c(C)oc2ccc(OCC3(C(F)(F)F)CC3)cc12` (single isomer, unassigned) [Cpd 060 - En2, N-(1-hydroxy-3-methoxy-2-methylpropan-2-yl)-2-methyl-5-{[1-(trifluoromethyl)cyclopropyl]methoxy}-1-benzofuran-3-carboxamide], less than 1000 nM. `Cc1oc2ccc(OCC3(C(F)(F)F)CC3)cc2c1C(=O)NC1(C)CCCNC1=O` (single isomer, unassigned) [Cpd 061 - En1, 2-methyl-N-(3-methyl-2-oxopiperidin-3-yl)-5-{[1-(trifluoromethyl)cyclopropyl]methoxy}-1-benzofuran-3-carboxamide] came in with a 50% inhibitory concentration (IC50) of more than 20000 nM.

In turn, `Cc1oc2ccc(OCC3(C(F)(F)F)CC3)cc2c1C(=O)NC1(C)CCCNC1=O` (single isomer, unassigned) [Cpd 061 - En2, 2-methyl-N-(3-methyl-2-oxopiperidin-3-yl)-5-{[1-(trifluoromethyl)cyclopropyl]methoxy}-1-benzofuran-3-carboxamide] showed a half-maximal inhibitory concentration (IC50) of 1000 to 20000 nM.

`Cc1oc2ccc(OCC3CCCC3)cc2c1C(=O)NC(C)(CO)C(N)=O` (single isomer, unassigned) [Cpd 062 - En1, 2-{[5-(cyclopentylmethoxy)-2-methyl-1-benzofuran-3-yl]formamido}-3-hydroxy-2-methylpropanamide] displayed an IC50 of less than 1000 nM. The result for `Cc1oc2ccc(OCC3CCCC3)cc2c1C(=O)NC(C)(CO)C(N)=O` (single isomer, unassigned) [Cpd 062 - En2, 2-{[5-(cyclopentylmethoxy)-2-methyl-1-benzofuran-3-yl]formamido}-3-hydroxy-2-methylpropanamide] reads less than 1000 nM; that for `Cc1oc2ccc(OCC3CC3)cc2c1C(=O)N[C@@H](CO)C(N)=O` [Cpd 001, (2S)-2-{[5-(cyclopropylmethoxy)-2-methyl-1-benzofuran-3-yl]formamido}-3-hydroxypropanamide], less than 1000 nM; that for `Cc1oc2ccc(OCC3(C(F)F)CC3)cc2c1C(=O)N[C@@H](CO)C(N)=O` [Cpd 003, (2S)-2-[(5-{[1-(difluoromethyl)cyclopropyl]methoxy}-2-methyl-1-benzofuran-3-yl)formamido]-3-hydroxypropanamide], less than 1000 nM.

What is called IC50 is the concentration needed to halve the response being measured. Read a low IC50 as inhibition by little substance.
